# Test results reported in patent publication US10080812B2, “Radioactive iodine labeled pyrido[1,2-a]benzoimidazole derivative compound” (priority 2015, dated 2018).
# Legend:
# [1] = Metabolite analysis in blood; type: in vivo, ddY mouse; conditions: i.v.; for Proportion of parent compound in blood: mouse plasma, mean±SD n=3
# Protocol: A 5-week-old male ddY mouse was used as a normal mouse. [^123I]BIP-3 obtained by the method shown in Example 10, which was contained in saline containing 0.1 vol % Tween 80 and 10 vol % ethanol, was administered from the tail vein (3.70 MBq, 100 μL). 2 minutes, 10 minutes, or 30 minutes after administration, the mouse was slaughtered, and blood was collected into a test tube with an inner wall coated with Heparin Sodium Injection (manufactured by Nipro Pharma Corp.). After radioactivity measurement, the blood was centrifuged at 4000×g at 4° C. for 5 minutes and separated into plasma and cell components. To the obtained plasma, a 2-fold volume of methanol was added for protein denaturation, and the mixture was centrifuged at 4000×g at 4° C. for 5 minutes. The obtained supernatant was passed through Cosmonice Filter (S) (0.45 μm, 4 mm) (Nacalai Tesque, Inc.) and analyzed by reverse phase HPLC. Analytical conditions for HPLC were the same as the conditions used in Example 9.
# [2] = Metabolite analysis in brain; type: in vivo, ddY mouse; conditions: mouse brain, 2 min after i.v. administration
# Protocol: A 5-week-old male ddY mouse was used as a normal mouse. [^123I]BIP-3 obtained by the method shown in Example 10, which was contained in saline containing 0.1 vol % Tween 80 and 10 vol % ethanol, was administered from the tail vein (3.70 MBq, […]). After 2 minutes, the mouse was slaughtered, and the brain was excised, homogenized in methanol (2.00 mL) and TBS (2.00 mL), and centrifuged at 4000×g at 4° C. for 10 minutes, followed by the collection of a supernatant. The obtained supernatant was passed through Cosmonice Filter (S) (0.45 μm, 4 mm) (Nacalai Tesque, Inc.) and analyzed by reverse phase HPLC. Analytical conditions for HPLC were the same as the conditions used in Example 9.
compound,measurement,setting,value
"[123I]c1ccc2c(c1)nc1ccccn12 [[^123I]BIP-3, 7-[^123I]iodobenzo[4,5]imidazo[1,2-a]pyridine]",Proportion of parent compound in blood,[1]; 2 min after administration,83.1 ± 7.7
same,Proportion of parent compound in blood,[1]; 10 min after administration,23.6 ± 2.2
same,Proportion of parent compound in blood,[1]; 30 min after administration,8.4 ± 1.1
same,metabolite formation in blood,"[1]; mouse, HPLC of plasma",forms a highly water-soluble metabolite
same,metabolite analysis of brain homogenates (reverse phase HPLC),[2],only the signal peak of the parent compound was detected
